≈ marks a conversion by molar mass, not a printed value. Read-outs that look alike come from different tables or passages of the source. Blank lines part the entries; values can stand above or below the molecule they belong to.
Tests used:
[1] = target: T1, Recombinant human Src (Homo sapiens, UniProt P12931); test: Enzymatic assay on isolated Src; format: biochemical
T1 construct: purchased Upstate (Lake Placid, N.Y.)
Description: Recombinant human Src was purchased from Upstate (Lake Placid, N.Y.).

[2] = PAMPA, intestinal (GI) permeability; conditions: for Papp / Papp at 5 h, 0.5 mM: PAMPA; for Papp: Table 6; for PAMPA GI (MR %): Membrane Retention; for Papp at 5 h, 0.5 mM: pH 7.4
Protocol: (§1) Donor solution (0.5 mM) was prepared by diluting 1 mM dimethylsulfoxide (DMSO) compound stock solution using phosphate buffer (pH 7.4, 0.025 M). […] Donor solution (150 μL) was added to each well of the filter plate. To each well of the acceptor plate were added 300 μL of solution (50% DMSO in phosphate buffer). All compounds were tested in three different plates on different days. The sandwich was incubated for 5 h at room temperature under gentle shaking. After the incubation time, the plates were separated, and samples were taken from both receiver and donor sides and analyzed using LC with UV detection at 280 nm.
(§2) Permeability (Papp) for PAMPA was calculated according to the following equation, obtained from Wohnsland and Faller^27 and Sugano et al.^28 equation with some modification in order to obtain permeability values in cm s^−1,
(§3) Drug concentration is estimated by using the peak area integration. Membrane retentions (%) were calculated according to the following equation:
(§4) where r is the ratio between drug concentration in the acceptor and equilibrium concentration, D, A, and Eq represented drug concentration in the donor, acceptor and equilibrium solution, respectively.
(§5) Donor solution of tested compounds (0.5 mM) was prepared by diluting 1 mM dimethylsulfoxide (DMSO) compound stock solution using phosphate buffer (pH 7.4, 25 mM). […] Donor solution (150 μL) was added to each well of the filter plate. To each well of the acceptor plate were added 300 μL of solution (50% DMSO in phosphate buffer). Compounds was tested in three different plates on different days. The sandwich was incubated for 5 h at room temperature under gentle shaking.
(§6) Permeability (Papp) for PAMPA was calculated according to the following equation, obtained from Wohnsland and Faller and Sugano et al.^27, 28.
(§7) Drug concentration is estimated by using the peak area integration. Membrane retention (%) was calculated according to the following equation:

[3] = Water solubility assay; conditions: for solubility at 24 h / solubility thermodynamic at 24 h: water, 20 °C, thermodynamic from solid; for H2O Solubility: Table 6
[4] = PAMPA, BBB permeability; conditions: for PAMPA BBB (MR %): Membrane Retention; for Papp at 5 h, 0.5 mM: PAMPA, pH 7.4
Protocol: as §1, §2, §3, §4, §5, §6, §7

[5] = Microsomal stability assay; conditions: for Metabolic Stab. %: percentage of unmodified drug, Table 8; for Metabolic Stab.: percentage of unmodified parent drug, human liver microsomes 60 min
[6] = target: recombinant Fyn (Homo sapiens, UniProt P06241); test: Enzymatic assay on isolated Fyn kinase
Protocol: Kinase assays were performed in presence of 200 μM ATP and 100 μM peptide substrate. All inhibition assays were conducted with 0.01 μg active kinase, 0.33 μmol [^γ32P]ATP, 60 mM HEPES-NaOH pH 7.5, 3 μM Na-orthovanadate, 1.2 mM DTT, 50 μg/ml PEG20.0000, 10 mM magnesium acetate, 0.004% NP40 and 10% DMSO in a final volume of 10 μL. Fyn and inhibitors were preincubated in ice for 5 min; after addition of the substrates the reaction was conducted at 30° C. for 10 min. The reaction was stopped by adding 5 μL of 3% phosphoric acid. Aliquots (10 μL) were then transferred into a P30 Filtermat (PerkinElmer), washed five times with 75 mM phosphoric acid and once with acetone for 5 minute. The filter was dried and transferred to a sealable plastic bag, and scintillation cocktail (4 mL) was added. Spotted reactions were read in a MicroBeta Liquid (Perkinelmer) scintillation counter. The ID50 values were obtained according to the following equation:
Ki values toward recombinant Fyn were calculated using the equation:
according to a competitive mechanism of inhibition toward ATP substrate, where [SATP] is the concentration of ATP. Curve fitting was performed with the program GraphPad Prism version 5.00.

[7] = Stability tests in phosphate buffer and methanol; format: physicochemical; conditions: 20° C., 48 h incubation
[8] = Enzymatic stability in human plasma; format: in vitro ADME; conditions: human, pooled human plasma diluted with phosphate buffer, pH 7.4; 37° C.; read-out: Stability Human Plasma t1/2 (converted)
[9] = mean of at least two experiments, read-out: Enzymatic Data (Ki, μM) c-Src
[10] = read-out: Enzymatic Data (Ki, μM) Fyn

recombinant Fyn, sequence (P06241 whole entry, looked up): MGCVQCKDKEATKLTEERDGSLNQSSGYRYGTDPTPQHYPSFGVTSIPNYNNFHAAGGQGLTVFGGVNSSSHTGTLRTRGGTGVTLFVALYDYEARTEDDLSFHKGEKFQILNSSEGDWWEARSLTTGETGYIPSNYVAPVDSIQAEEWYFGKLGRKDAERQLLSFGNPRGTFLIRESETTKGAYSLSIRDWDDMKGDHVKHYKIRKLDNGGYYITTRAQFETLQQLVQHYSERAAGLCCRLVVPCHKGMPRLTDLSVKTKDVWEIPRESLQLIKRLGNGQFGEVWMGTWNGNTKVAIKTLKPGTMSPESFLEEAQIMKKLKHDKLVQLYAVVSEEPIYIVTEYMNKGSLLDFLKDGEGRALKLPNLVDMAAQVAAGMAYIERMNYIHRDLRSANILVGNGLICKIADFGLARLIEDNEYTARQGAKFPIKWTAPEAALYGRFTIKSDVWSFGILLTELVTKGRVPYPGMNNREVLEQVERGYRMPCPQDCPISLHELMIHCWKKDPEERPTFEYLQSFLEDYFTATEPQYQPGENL
T1 sequence (P12931 whole entry): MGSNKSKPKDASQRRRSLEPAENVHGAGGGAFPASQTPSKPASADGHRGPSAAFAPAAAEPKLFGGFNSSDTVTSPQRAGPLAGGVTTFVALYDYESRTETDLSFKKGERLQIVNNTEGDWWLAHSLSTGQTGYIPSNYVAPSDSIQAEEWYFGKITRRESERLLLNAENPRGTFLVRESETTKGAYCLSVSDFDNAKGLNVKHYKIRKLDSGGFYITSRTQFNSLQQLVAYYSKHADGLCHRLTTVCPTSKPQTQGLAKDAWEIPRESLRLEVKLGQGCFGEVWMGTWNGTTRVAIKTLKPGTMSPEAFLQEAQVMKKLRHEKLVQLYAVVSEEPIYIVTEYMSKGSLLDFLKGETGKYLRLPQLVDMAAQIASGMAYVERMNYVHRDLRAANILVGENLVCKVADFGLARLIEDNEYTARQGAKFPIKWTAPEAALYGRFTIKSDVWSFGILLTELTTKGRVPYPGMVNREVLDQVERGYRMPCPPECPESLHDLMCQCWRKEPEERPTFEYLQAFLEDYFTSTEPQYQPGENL

SMILES: CSc1nc(Nc2cccc(O)c2)c2cnn(CCc3ccccc3)c2n1
Ki [1, 9]: 0.62 µM
Papp [2]: 5.24 10^−6 cm/sec

SMILES: Clc1ccccc1CNc1ncnc2c1cnn2CC(Cl)c1ccc(Br)cc1 (stereo not shown) [Si221]
H2O Sol. (Log S) ([3]; Table 8): (<−8.60) log mol · L^−1
H2O Sol. ([3]; Table 8, 20° C., 24 h): <0.01 µg/mL
PAMPA BBB ([4]; Blood Brain Barrier PAMPA): 13.23 10^−6 cm · sec^−1
PAMPA BBB (MR %) [4]: (7.3) %
Metabolic Stab. % [5]: 95.2%
PAMPA GI ([2]; Gastrointestinal PAMPA, Table 8): 8.78 10^−6 cm · sec^−1
PAMPA GI (MR %) [2]: (21.0) %

SMILES: CCCCSc1nc(Nc2cccc(O)c2)c2cnn(CC(Cl)c3ccccc3)c2n1 (stereo not shown)
Ki [1, 9]: 0.13 µM
Papp [2]: 3.43 10^−6 cm/sec

SMILES: CCCNc1nc(SCCN2CCOCC2)nc2c1cnn2CC(Cl)c1ccccc1 (stereo not shown) [drawing 192]
Ki [6, 10]: 8.15 µM

SMILES: CC(C)Sc1nc(Nc2ccccc2)c2cnn(CC(Cl)c3ccccc3)c2n1 (stereo not shown)
Ki [1, 9]: 0.3 µM

Ki [1, 9]: 0.1 µM
Metabolic Stab. [5]: 97%
Papp at 5 h, 0.5 mM [2]: 2.15 ×10⁻⁶ cm/s
SMILES: Fc1ccc(CCn2ncc3c(Nc4cccc(Cl)c4)nc(SCCN4CCOCC4)nc32)cc1 [drawing 171]

Ki [6, 10]: 1.49 µM
SMILES: COc1ccc(-c2nn(CC(Cl)c3ccccc3)c3ncnc(N)c23)cc1 (stereo not shown)

SMILES: Clc1cccc(Nc2nc(SCCN3CCOCC3)nc3c2cnn3CCc2ccccc2)c1
Ki [1, 9]: 1.2 µM
Papp [2]: 3.50 10^−6 cm/sec

SMILES: CC(Cn1ncc2c(Nc3cccc(Cl)c3)nc(SCCN3CCOCC3)nc21)c1ccccc1 (stereo not shown)
Ki [1, 9]: 0.97 µM
Papp [2]: 5.51 10^−6 cm/sec

SMILES: CCCNc1nc(SCCN2CCOCC2)nc2c1cnn2CC(Cl)c1ccccc1 (stereo not shown) [Si109, 1-(2-chloro-2-phenylethyl)-6-((2-morpholinoethyl)thio)-N-propyl-1H-pyrazolo[3,4-d]pyrimidin-4-amine]
Ki [6]: 7.5 to 16 µM

SMILES: OCCNc1nc(NCc2ccccc2)c2cnn(/C=C/c3ccccc3)c2n1 [Si74, 2-(4-benzylamino-1-styryl-1H-pyrazolo[3,4-d]pyrimidin-6-ylamino)-ethanol]
Ki ([6]; read-out: Ki Fyn): 1.15 µM

solubility at 24 h [3]: 0.295 µM (≈ 0.127 µg/mL)
solubility thermodynamic at 24 h [3]: 0.13 µg/mL (≈ 0.302 µM)
PAMPA BBB (MR %) [4]: (39.6) %
Papp at 5 h, 0.5 mM [4]: 3.14 ×10⁻⁶ cm/s
Metabolic Stab. % [5]: 91.1%
PAMPA GI (MR %) [2]: (69.9) %
Papp at 5 h, 0.5 mM [2]: 0.26 ×10⁻⁶ cm/s
SMILES: CSc1nc(Nc2cccc(Cl)c2)c2cnn(CC(Cl)c3ccccc3)c2n1 (stereo not shown) [Si83, 1-(2-chloro-2-phenylethyl)-N-(3-chlorophenyl)-6-(methylthio)-1H-pyrazolo[3,4-d]pyrimidin-4-amine]

Ki [6, 10]: 1.62 µM
SMILES: CC(Cn1nc(-c2ccc3[nH]ccc3c2)c2c(N)ncnc21)c1ccccc1 (stereo not shown)

SMILES: CCCCSc1nc(Nc2cccc(Cl)c2)c2cnn(CC(Cl)c3ccccc3)c2n1 (stereo not shown) [Si174]
Ki ([6]; read-out: Ki Fyn): 1.4 µM

SMILES: CC(C)Sc1nc(Nc2cccc(Br)c2)c2cnn(CC(Cl)c3ccccc3)c2n1 (stereo not shown)
Ki [1, 9]: 0.62 µM

solubility at 24 h [3]: 0.166 µM (≈ 0.0704 µg/mL)
solubility thermodynamic at 24 h [3]: 0.07 µg/mL (≈ 0.165 µM)
PAMPA BBB (MR %) [4]: (24.5) %
Papp at 5 h, 0.5 mM [4]: 6.17 ×10⁻⁶ cm/s
Metabolic Stab. % [5]: 96.2%
PAMPA GI (MR %) [2]: (33.0) %
Papp at 5 h, 0.5 mM [2]: 7.4 ×10⁻⁶ cm/s
SMILES: CSc1nc(NCCc2ccccc2)c2cnn(CC(Cl)c3ccccc3)c2n1 (stereo not shown) [Si35, 1-(2-chloro-2-phenylethyl)-6-(methylthio)-N-phenethyl-1H-pyrazolo[3,4-d]pyrimidin-4-amine]

SMILES: CC(=O)c1ccc(-c2nn(CC(C)c3ccccc3)c3ncnc(N)c23)cc1 (stereo not shown) [drawing 206]
Ki [6]: > 10 µM

SMILES: Cl.Oc1cccc(Nc2nc(SCCN3CCOCC3)nc3c2cnn3CCc2ccccc2)c1 [Si332, 3-{[6-[(2-Morpholin-4-ylethyl)thio]-1-(2-phenylethyl)-1H-pyrazolo[3,4-d]pyrimidin-4-yl]amino}phenol hydrochloride]
H2O Solubility [3]: 97 µg/mL
solubility value ([3]; aqueous): 97 µg/mL
Metabolic Stab. [5]: 97%
Papp [2]: 6.38 10^−6 cm/sec

SMILES: Fc1ccc(CNc2nc(SCCN3CCOCC3)nc3c2cnn3CC(Cl)c2ccccc2)cc1 (stereo not shown) [Si180, 1-(2-chloro-2-phenylethyl)-N-(4-fluorobenzyl)-6-((2-morpholinoethyl)thio)-1H-pyrazolo[3,4-d]pyrimidin-4-amine]
Ki [6]: 7.5 to 16 µM

SMILES: CCSc1nc(Nc2cccc(Br)c2)c2cnn(CC(C)c3ccccc3)c2n1 (stereo not shown)
Ki [1]: ~0.1 µM
Ki [1, 9]: 0.1 µM
Papp [2]: 2.03 10^−6 cm/sec

Ki [6]: 7.5 to 16 µM
SMILES: CSc1nc(NCCc2cccc(Cl)c2)c2cnn(/C=C/c3ccccc3)c2n1 [Si215, N-[2-(3-chlorophenyl)ethyl]-6-(methylthio)-1-[2-phenylvinyl]-1H-pyrazolo[3,4-d]pyrimidin-4-amine]

SMILES: CNc1nc(SC)nc2c1c(-c1ccccc1)nn2CCc1ccccc1
Ki [6]: > 10 µM

SMILES: CC(C)Sc1nc(Nc2cccc(F)c2)c2cnn(CC(Cl)c3ccccc3)c2n1 (stereo not shown)
Ki [1, 9]: 0.26 µM

SMILES: Fc1cccc(Nc2nc(SC3CCCC3)nc3c2cnn3CC(Cl)c2ccccc2)c1 (stereo not shown) [drawing 191, reference compound]
Ki [6]: > 100 µM

Ki [6]: > 100 µM
SMILES: ClC(Cn1ncc2c(NCCc3ccccc3)nc(SCCN3CCOCC3)nc21)c1ccccc1 (stereo not shown)

SMILES: CSc1nc(Nc2cccc(Br)c2)c2cnn(CCc3ccccc3)c2n1
Ki [1, 9]: 0.2 µM
Papp [2]: 3.26 10^−6 cm/sec

SMILES: Fc1ccc(CNc2nc(SCCN3CCOCC3)nc3c2cnn3CC(Cl)c2ccccc2)cc1 (stereo not shown) [drawing 193]
Ki [6, 10]: 15.5 µM

Ki [6]: > 100 µM
SMILES: CCC(C)Sc1nc(NCc2ccccc2)c2cnn(CC(Cl)c3ccccc3)c2n1 (stereo not shown) [drawing 195]

half-life at 500 μM ([7]; methanol, read-out: Stability MeOH t1/2): > 48 h
half-life at 500 μM ([7]; phosphate buffer, pH 7.4, read-out: Stability PBS pH 7.4 t1/2): > 48 h
half-life at 100 μM [8]: > 48 h
solubility at 24 h [3]: 3.09 µM (≈ 2 µg/mL)
solubility thermodynamic at 24 h [3]: 1.95 µg/mL (≈ 3.01 µM)
PAMPA BBB (MR %) [4]: (79.4) %
Papp at 5 h, 0.5 mM [4]: 1.92 ×10⁻⁶ cm/s
PAMPA GI (MR %) [2]: (78.1) %
Papp at 5 h, 0.5 mM [2]: 2.38 ×10⁻⁶ cm/s
SMILES: CN1CCN(CCOC(=O)N(Cc2ccccc2Cl)c2ncnc3c2cnn3CC(Cl)c2ccc(Br)cc2)CC1 (stereo not shown) [proSi221, 2-(4-Methylpiperazin-1-yl)ethyl (1-(2-(4-bromophenyl)-2-chloroethyl)-1H-pyrazolo[3,4-d]pyrimidin-4-yl)(2-chlorobenzyl)carbamate]

Ki [6, 10]: 16 µM
SMILES: CSc1nc(NCCc2cccc(Cl)c2)c2cnn(/C=C/c3ccccc3)c2n1 [drawing 198]

SMILES: CC(Cn1ncc2c(Nc3ccccc3)nc(SCCN3CCOCC3)nc21)c1ccccc1 (stereo not shown)
Ki [1, 9]: 1.44 µM
Papp [2]: 3.66 10^−6 cm/sec

SMILES: CC(Cn1ncc2c(Nc3cccc(F)c3)nc(SCCN3CCOCC3)nc21)c1ccccc1 (stereo not shown)
Ki [1, 9]: 2.34 µM
Papp [2]: 6.51 10^−6 cm/sec

SMILES: ClC(Cn1ncc2c(Nc3ccccc3)nc(SC3CCCC3)nc21)c1ccccc1 (stereo not shown)
Ki [1, 9]: 0.12 µM
Metabolic Stab. [5]: 94%
Papp [2]: 13 10^−6 cm/sec

SMILES: ClC(Cn1ncc2c(NCc3ccccc3)ncnc21)c1ccccc1 (stereo not shown) [Si3]
Ki ([6]; read-out: Ki Fyn): 3.5 µM

SMILES: Fc1cccc(Nc2nc(SC3CCCC3)nc3c2cnn3CC(Cl)c2ccccc2)c1 (stereo not shown) [Si170, 1-(2-Chloro-2-phenylethyl)-6-(cyclopentylthio)-N-(3-fluorophenyl)-1H-pyrazolo[3,4-d]pyrimidin-4-amine]
Ki ([1]; read-out: Ki c-Src): ~0.1 µM

Ki [6]: > 100 µM
SMILES: CCCCSc1nc(NCCc2ccccc2)c2cnn(CC(Cl)c3ccccc3)c2n1 (stereo not shown)

Ki [6]: 7.5 to 16 µM
SMILES: ClC(Cn1ncc2c(NCc3ccccc3)nc(Cc3ccccc3)nc21)c1ccccc1 (stereo not shown) [Si164, N,6-dibenzyl-1-(2-chloro-2-phenylethyl)-1H-pyrazolo[3,4-d]pyrimidin-4-amine]

Ki [6]: > 100 µM
SMILES: CCC(C)Sc1nc(NCCc2ccccc2)c2cnn(CC(Cl)c3ccccc3)c2n1 (stereo not shown) [drawing 196]

Ki [6, 10]: 13 µM
SMILES: ClC(Cn1ncc2c(NCc3ccccc3)nc(Cc3ccccc3)nc21)c1ccccc1 (stereo not shown) [drawing 200]

SMILES: CC(Cn1nc(-c2ccc(Cl)cc2)c2c(N)ncnc21)c1ccccc1 (stereo not shown) [Si337, 3-(4-Chlorophenyl)-1-(2-phenylpropyl)-1H-pyrazolo[3,4-d]pyrimidin-4-amine]
Ki [6]: 0.78 µM
decreased Fyn activity on substitution of chlorine by methyl in N1 side chain ([6]; Si312 vs Si244, Si337 vs Si308, Si338 vs Si309): about 10 fold

SMILES: CCSc1nc(Nc2cccc(F)c2)c2cnn(CC(C)c3ccccc3)c2n1 (stereo not shown)
Ki [1, 9]: 0.79 µM
Metabolic Stab. [5]: 94%
Papp [2]: 1.72 10^−6 cm/sec

SMILES: CC(Cn1ncc2c(Nc3cccc(O)c3)nc(SCCN3CCOCC3)nc21)c1ccccc1.Cl (stereo not shown) [Si329, 3-{[6-[(2-Morpholin-4-ylethyl)thio]-1-(2-phenylpropyl)-1H-pyrazolo[3,4-d]pyrimidin-4-yl]amino}phenol hydrochloride]
H2O Solubility [3]: 1 µg/mL
Metabolic Stab. [5]: 99%
Papp [2]: 6.81 10^−6 cm/sec

SMILES: COC(Cn1nc(-c2ccccc2)c2c(N)nc(SC)nc21)c1ccccc1 (stereo not shown)
Ki [6]: > 10 µM

SMILES: CCSc1nc(Nc2cccc(O)c2)c2cnn(CC(C)c3ccccc3)c2n1 (stereo not shown)
Ki [1, 9]: 0.11 µM
Papp [2]: 4.91 10^−6 cm/sec

SMILES: CSc1nc(Nc2cccc(F)c2)c2cnn(CCc3ccccc3)c2n1
Ki [1, 9]: 1.06 µM
Papp [2]: 9.33 10^−6 cm/sec

SMILES: CSc1nc(Nc2ccccc2)c2cnn(CCc3ccccc3)c2n1
Ki [1, 9]: 1.46 µM
Metabolic Stab. [5]: 90%
Papp [2]: 7.60 10^−6 cm/sec

SMILES: CCSc1nc(Nc2cccc(Cl)c2)c2cnn(CC(C)c3ccccc3)c2n1 (stereo not shown)
Ki [1, 9]: 0.55 µM
Papp [2]: 3.81 10^−6 cm/sec

Ki [6]: > 100 µM
SMILES: ClC(Cn1ncc2c(NCCc3ccccc3)nc(SC3CCCC3)nc21)c1ccccc1 (stereo not shown)

— patent publication US20180186796A1, “COMPOUNDS AND USES THEREOF” (LEAD DISCOVERY SIENA S.R.L., priority 2014, published 2018)
